In one series the target is T1, Caspase-1 (Homo sapiens, UniProt P29466).
T1 construct: purchased BioVision K151-100
T1 sequence (P29466 120-297 limits assumed): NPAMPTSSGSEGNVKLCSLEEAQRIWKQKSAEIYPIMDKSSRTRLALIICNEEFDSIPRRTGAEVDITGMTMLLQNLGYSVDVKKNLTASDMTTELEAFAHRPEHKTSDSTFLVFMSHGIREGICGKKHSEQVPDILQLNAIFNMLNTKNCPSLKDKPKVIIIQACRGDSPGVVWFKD
T1 sequence (P29466 317-404 limits assumed): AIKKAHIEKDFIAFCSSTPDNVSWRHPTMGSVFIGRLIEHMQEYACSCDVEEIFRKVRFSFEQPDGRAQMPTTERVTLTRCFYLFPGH
The series can be described thus: In vitro inhibitory activity on Caspase-1 (BioVision Caspase-1 Inhibitor Screening Kit). It is filed as biochemical. The note with it: fluorogenic substrate 50 μM; test concentrations 1000 nM to 0.32 nM. Here is the method: (§1) Caspase Inhibitor Screening Kit for BioVision was used in this experiment to test the inhibitory activity of the test compounds on Caspase.
Caspase-1 Inhibitor Screening Kit (BioVision #K151-100)
(§2) Note: Each caspase enzymatic experiment uses the reagents in corresponding kit thereof. Each enzyme was dissolved in 550 μl of the corresponding 2× reaction buffer, sub-packed and stored at −80° C., respectively.
(§3) 1) The compound was diluted to a 200*test concentration with DMSO via the multiple dilution, then to a 2*test concentration with ddH2O, and added to a 384-well experimental plate at 12.5 μl per well. Test compounds and control compounds were tested at 6 concentration points, test concentrations ranging from 1000 nM to 0.32 nM. The ddH2O containing 1% DMSO was added to the 0% inhibition control well, and a high concentration of the control compound was added to the 100% inhibition control well (final concentration: 5 μM).
(§4) 2) 2× reaction buffer containing 10 mM DTT was prepared. The enzyme caspase stock solution was diluted 5-fold with 2× reaction buffer containing 10 mM DTT and added to a 384-well experimental plate at 6.25 μl per well. After being mixed, the enzyme and compounds were incubated at 37° C. for 30 minutes.
(§5) 3) The fluorogenic substrate of the enzyme caspase was diluted 5-fold with 2× reaction buffer containing 10 mM DTT, and then added to a 384-well experimental plate at 6.25 μl per well. The total reaction volume was 25 μl, the final concentration of the substrate was 50 μM, and the final concentration of DMSO was 0.5%. After the substrate was added, the 384-well experimental plate was incubated at 37° C. for 30 minutes.
(§6) 4) The fluorescence intensity (excitation light wavelength was 400 nm, emission light wavelength was 505 nm) was measured by using a multi-function microplate reader. Fluorescence intensity was used to calculate the inhibitory effect of the compounds on Caspase. GraphPad Prism software was used for fitting compound inhibition curves and calculating IC50 values.

In another series the target is T2, Caspase-3 (Homo sapiens, UniProt P42574).
T2 construct: purchased BioVision K153-100
T2 sequence (P42574 29-175 limits assumed): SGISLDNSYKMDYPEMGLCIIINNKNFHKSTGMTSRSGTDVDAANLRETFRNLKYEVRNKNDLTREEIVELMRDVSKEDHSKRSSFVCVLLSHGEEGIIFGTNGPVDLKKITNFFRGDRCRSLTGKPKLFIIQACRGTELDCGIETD
T2 sequence (P42574 176-277 limits assumed): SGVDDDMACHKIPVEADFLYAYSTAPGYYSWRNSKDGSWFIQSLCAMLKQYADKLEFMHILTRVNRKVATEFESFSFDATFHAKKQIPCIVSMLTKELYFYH
The series can be described thus: In vitro inhibitory activity on Caspase-3 (BioVision Caspase-3 Inhibitor Screening Kit). It counts as biochemical. The note with it: fluorogenic substrate 50 μM; test concentrations 1000 nM to 0.32 nM. Here is the method: as §1
Caspase-3 Inhibitor Screening Kit (BioVision #K153-100)
as §2, §3, §4, §5, §6

Another series has as its target T3, Caspase-8 (Homo sapiens, UniProt Q14790).
T3 construct: purchased BioVision K158-100
The series can be described thus: In vitro inhibitory activity on Caspase-8 (BioVision Caspase-8 Inhibitor Screening Kit). It is filed as biochemical. The note with it: fluorogenic substrate 50 μM; test concentrations 1000 nM to 0.32 nM. Here is the method:
as §1
Caspase-8 Inhibitor Screening Kit (BioVision #K158-100)
as §2, §3, §4, §5, §6

The nature of series [1]: Mouse pharmacokinetic study in plasma and liver after oral administration. The note with it: for concentration at 0.5 h / concentration at 2 h / concentration at 6 h: male, C57BL/6J, plasma, read-out: Plasma drug concentration; for liver drug-time curve (area) / plasma drug-time curve (area): 0.5-6 h samples. It is filed as in vivo, male C57BL/6J mice. The source says: This experiment intended to investigate the pharmacokinetics in plasma and liver of male C57BL/6J mice after oral administration of the compounds.
Mice were randomly divided into three groups (3 male mice per group). The compound was formulated into the specified formulation. Oral formulations may be clear or uniform suspensions. Animals were intragastrically administered with a given dose of the preparation, respectively.
Whole blood samples were collected from animals through jugular vein puncture at 3 time points of 30 minutes, 2 hours, and 6 hours after administration, approximately 25 μL per sample; while the liver was collected at each time point.
The plasma samples were added to centrifuge tubes containing anticoagulant, and centrifuged at 4° C., 3000 g for 15 min, and the supernatant plasma was taken and quickly frozen on dry ice and then stored in a refrigerator at −70±10° C. until LC-MS/MS analysis was performed.
The blood outside the liver was sopped up with absorbent paper, and the weight of the liver was weighed, and then placed in liquid nitrogen to freeze. MeOH/15 mM PBS (1:2) at a volume-weight ratio of 1:5 was added thereto, and then the homogenization was performed at 14000 rpm for 2 minutes. It was then stored in a refrigerator at −70±10° C. until LC-MS/MS analysis was performed.
The plasma drug concentration data for the compounds were processed with the non-compartment model using WinNonlin™ Version 6.3.0 (Pharsight, Mountain View, Calif.) pharmacokinetic software. The maximal concentration (Cmax), maximal concentration time (Tmax) and quantitative end time were directly obtained from the plasma concentration-time chart.
The following pharmacokinetic parameters were calculated by using logarithmic linear trapezoidal method: elimination phase half-life (T1/2); the in vivo mean residence time of the drug from point 0 to the last time point (MRT0-last); the in vivo mean residence time of the drug from point 0 to infinite time (MRT0-ifn); the area under time-plasma concentration curve from point 0 to the last time point (AUC0-last); the area under time-plasma concentration curve from point 0 to infinite time (AUC0-inf).
For individual plasma concentrations less than BQL, the one occurred before Tmax was calculated as 0, and the one occurred after Tmax was directly excluded. All parameters and ratios were reported in the forms of three significant digits.
The pharmacokinetic parameters of this experiment were calculated according to the theoretical blood collection times and the theoretical administration concentrations in the protocol. The deviations between the actual administration concentrations and the theoretical concentrations were within the range of ±20%. The deviations between the actual blood collection times and the theoretical blood collection times were in conformity with the relevant SOP (the points within 1 hour after administration were within the range of ±1 min, and the others were within 5% of the theoretical time).

Series [2] has as its system CCl4-induced chronic liver fibrosis model. The series can be described thus: Pharmacodynamic study in CCl4-induced chronic liver fibrosis model. The note with it: for Ballooning change score / Inflammatory cell infiltration / Percentage of liver fibrosis / Total score of liver injury: p.o., bid, 28 days, mean ± sem; for Effect on CCl4-induced liver tissue damage (in words) / Inhibitory effect on liver fibrosis (in words): different doses, oral twice a day for 28 days, vs model group. Details: Total score of liver injury / Ballooning change score: scale not given here. It counts as in vivo, male C57BL/6 mice. The method, then:
The therapeutic effects of the test compound IDN-6556 and the compound of Example 1 in the CCl4-induced chronic liver fibrosis model of male C57BL/6 mice were tested.
Male C57BL/6 mice were randomly divided into 7 groups: pseudo model group (group 1), model group (group 2, solvent p.o., q.d), IDN-6556 (group 3, 3 mg/kg, p.o., bid), IDN-6556 (group 4, 10 mg/kg, p.o., bid), Example 1 (group 5, 3 mg/kg, p.o., bid), Example 1 (group 6, 10 mg/kg, p.o., bid)), Example 1 (group 7, 20 mg/kg, p.o., bid). CCl4 was formulated into a CCl4-olive oil mixed solution according to the doses by using olive oil, modeling is performed by orally administration three times a week for 4 weeks; and the pseudo model group was orally administered with the same volume of olive oil alone. Compounds were orally administrated from the day of modeling, twice a day for 28 days, while the pseudo model group and the model group were orally administered with an equal volume of drug solvent. On the next day after the last administration, the animals were fasted for 6 hours, followed by euthanizing, and the livers were collected. Liver tissues were fixed in 10% formalin solution for histopathological analysis.

Where [3] appears, read: 0.5 h after oral (intragastric) administration.
The mark [4] stands for this setting: 2 h after oral (intragastric) administration.
Setting [5] is: 6 h after oral (intragastric) administration.

Entries after “also recorded” stand apart in the source; their conditions may differ.

T3 sequence (Q14790 217-374 limits assumed): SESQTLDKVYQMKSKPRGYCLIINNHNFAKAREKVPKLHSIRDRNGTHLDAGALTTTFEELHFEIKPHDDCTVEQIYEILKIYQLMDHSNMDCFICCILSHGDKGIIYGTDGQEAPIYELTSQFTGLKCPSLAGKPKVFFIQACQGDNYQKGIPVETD
T3 sequence (Q14790 385-479 limits assumed): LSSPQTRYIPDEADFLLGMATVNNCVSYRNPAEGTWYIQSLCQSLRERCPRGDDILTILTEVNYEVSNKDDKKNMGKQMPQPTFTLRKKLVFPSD

`C[C@H](NC(=O)c1ncc(-c2ccccc2)s1)C(=O)N[C@@H](CC(=O)O)C(=O)COc1c(F)c(F)cc(F)c1F` [Example 2]: the IC50 – broadly, the concentration needed to halve the response being measured – against Caspase-1 amounted to 5.3 nM; at Caspase-3, 29.6 nM; on Caspase-8 it was 24.6 nM.
Consider `C[C@H](NC(=O)c1cc(-c2ccccc2)n[nH]1)C(=O)N[C@@H](CC(=O)O)C(=O)COc1c(F)c(F)cc(F)c1F` [Example 4], for which the IC50 on Caspase-1 was 4.1 nM; at Caspase-3, 11.4 nM; at Caspase-8 it was 11.7 nM.
For `C[C@H](NC(=O)c1cc(-c2ccccc2)on1)C(=O)N[C@@H](CC(=O)O)C(=O)COc1c(F)c(F)cc(F)c1F` [Example 9], in that order: 14.2 nM, 44.4 nM and 23.2 nM.
For `C[C@H](NC(=O)c1coc(-c2ccccc2)n1)C(=O)N[C@@H](CC(=O)O)C(=O)COc1c(F)c(F)cc(F)c1F` [Example 7], the IC50 worked out at 6.9 nM against Caspase-1, 20.2 nM on Caspase-3 and 30 nM at Caspase-8.
For `C[C@H](NC(=O)c1cc(-c2ccccc2F)n[nH]1)C(=O)N[C@@H](CC(=O)O)C(=O)COc1c(F)c(F)cc(F)c1F` [Example 5], in that order: 3.9 nM, 13.7 nM and 16.8 nM.
For `C[C@H](NC(=O)c1cc(-c2ccccc2)no1)C(=O)N[C@@H](CC(=O)O)C(=O)COc1c(F)c(F)cc(F)c1F` [Example 8], in that order: 5.5 nM, 21.8 nM and 18 nM.
Consider `C[C@H](NC(=O)C(=O)Nc1ccccc1C(C)(C)C)C(=O)N[C@@H](CC(=O)O)C(=O)COc1c(F)c(F)cc(F)c1F` [IDN-6556, reference compound], for which, in series [1] (setting [3]), the Liver drug concentration was determined as 8600 nmol/kg and the concentration at 0.5 h turned out to be 435 nM. Further, in series [1] (setting [4]), the Liver drug concentration was 930 nmol/kg and the concentration at 2 h was found to be 10.9 nM. In addition, in series [1] (setting [5]), the Liver drug concentration was found to be 230 nmol/kg and the concentration at 6 h stood at 5.79 nM. In series [1] (oral administration), the “liver drug-time curve (area)” value stood at 9.347 µM·h and the “plasma drug-time curve (area)” value was found to be 0.314 µM·h. Besides, in series [2] (3 mg/kg), the Ballooning change score is recorded as 0.05 ± 0.04, the Inflammatory cell infiltration stood at 1.55 ± 0.06, the “Percentage of liver fibrosis” value is 1.84 ± 0.07% and the “Total score of liver injury” value came to 1.60 ± 0.07. In addition, in series [2] (10 mg/kg), the Ballooning change score is 0.08 ± 0.04, the “Percentage of liver fibrosis” value is listed as 1.86 ± 0.12% and the “Total score of liver injury” value came to 1.43 ± 0.12. In addition, in series [2], the “Effect on CCl4-induced liver tissue damage (in words)” value was “significantly inhibit” and the “Inhibitory effect on liver fibrosis (in words)” value is reported as “no clear inhibitory effect”. Also, the “Effect on CCl4-induced liver tissue damage (in words)” value in series [2] (listed as IND-6556) is reported as “significantly improve”.
As for `C[C@H](NC(=O)c1cc(-c2ccccc2Cl)no1)C(=O)N[C@@H](CC(=O)O)C(=O)COc1c(F)c(F)cc(F)c1F` [Example 17], the concentration for half-maximal inhibition (IC50) amounted to 4.2 nM on Caspase-1, 9.5 nM on Caspase-3 and 31.4 nM on Caspase-8.
In the case of `C[C@H](NC(=O)c1cc(-c2ccccc2Cl)on1)C(=O)N[C@@H](CC(=O)O)C(=O)COc1c(F)c(F)cc(F)c1F` [Example 1, (S)-3-((S)-2-(5-(2-chlorophenyl)isoxazol-3-carboxamido)propionamido)-4-oxo-5-(2,3,5,6-tetrafluorophenoxy)pentanoic Acid], in series [1] (setting [3]), the Liver drug concentration was determined as 46440 nmol/kg and the concentration at 0.5 h was 2520 nM. Also, in series [1] (setting [4]), the Liver drug concentration amounted to 3126 nmol/kg and the concentration at 2 h was 112 nM. In addition, in series [1] (setting [5]), the Liver drug concentration amounted to 3252 nmol/kg and the concentration at 6 h came to 12.8 nM. Also, in series [1] (oral administration), the “Liver exposure compared to IDN-6556” value was “about 5 times”, the “liver drug-time curve (area)” value was 48.442 µM·h and the “plasma drug-time curve (area)” value stood at 1.795 µM·h. In series [2] (3 mg/kg), the Ballooning change score was 0.00 ± 0.00, the Inflammatory cell infiltration was 1.13 ± 0.06, the “Percentage of liver fibrosis” value is 1.61 ± 0.05^$$ % and the “Total score of liver injury” value is on record as 1.13 ± 0.06. In series [2] (10 mg/kg), the Ballooning change score is recorded as 0.00 ± 0.00, the Inflammatory cell infiltration came to 1.15 ± 0.07, the “Percentage of liver fibrosis” value is 1.62 ± 0.07^$ % and the “Total score of liver injury” value was 1.20 ± 0.07. Also, in series [2] (20 mg/kg), the Ballooning change score is 0.00 ± 0.00, the Inflammatory cell infiltration was 1.10 ± 0.04, the “Percentage of liver fibrosis” value is listed as 1.69 ± 0.10% and the “Total score of liver injury” value came to 1.12 ± 0.04. Further, in series [2], the “Effect on CCl4-induced liver tissue damage (in words)” value is reported as “significantly improve; also recorded: significantly inhibit” and the “Inhibitory effect on liver fibrosis (in words)” value is “significantly inhibited; also recorded: significant inhibitory effect”.
